Holding throughout (assay type): cell-based
One experiment relates to E. cl 144200 p99 AmpC. As to the kind of experiment: Broth microdilution MIC, E. cloacae 144200. Particulars: Enterobacter cloacae; fixed ceftazidime 4 μg/mL, CAMHB, 16-20 hours 37° C.; read-out: MIC of exemplary compounds in presence of fixed β-lactams, Fixed CAZ, E. cl 144200 p99 AmpC. The source says:
(§1) To determine the ability of test compounds to potentiate the inhibition of the growth of bacterial strains that produce beta-lactamase enzymes, classic cell based broth microdilution MIC assays were employed. Six bacteria strains producing beta-lactamase enzymes were used: E. coli expressing the Class A Extended Spectrum Beta-Lactamase (ESBL) CTX-M-15, E. cloacae expressing the Class C P99, K. pneumoniae expressing the Class A carbapenemase KPC-2, P. aeruginosa expressing the Class B carbapenemase VIM-2, K. pneumoniae expressing the class A carbapenemase KPC-2 and the class B carbapenemase VIM-4, and S. aureus producing the Class A penicillinase PC-1. The assay was conducted in Cation Adjusted Mueller Hinton Broth (CAMHB, BD #212322, BD Diagnostic Systems, Sparks, Md.). Bacteria strains were grown for 3-5 hours in CAMBH broth. Test compounds were added to a microtiter plate in 2-fold serial dilutions in CAMHB in a final concentration range of 32 μg/mL to 0.25 μg/ml. An overlay of CAMHB containing a Beta-lactam was added to the compounds at a final static concentration of 4 μg/ml. […] In addition to the titration of test compounds the MICs of a panel of control beta-lactams is also tested to ensure the strains are behaving consistently from test to test. Once the test compound and antibiotics are added the plates can be inoculated according to CLSI broth microdilution method. After inoculation the plates are incubated for 16-20 hours at 37° C. then the Minimal Inhibitory Concentration (MIC) of the test compound is determined visually.
(§2) Using the methodology described above in EXAMPLE III, exemplary compounds for Formula I or Formula Ia were evaluated for their ability to inhibit the growth of β-lactamase producing bacteria in the presence of a β-lactam antibiotic.
(Broth dilution looks for growth in wells or tubes with falling amounts of substance.)

In a further experiment the test system is E. coli ESBL4 CTX-M-15. As to the kind of experiment: Broth microdilution MIC, E. coli ESBL4. Particulars: Escherichia coli, ESBL4CTXM15; fixed ceftazidime 4 μg/mL, CAMHB, 16-20 hours 37° C.; read-out: MIC of exemplary compounds in presence of fixed β-lactams, Fixed CAZ, E. coli ESBL4 CTX-M-15.
Excerpt: as §1, §2

The subject of the next experiment is K.P. A-1797 KPC-2 VIM-4. The experiment is described as follows: Broth microdilution MIC, K. pneumoniae A-1797. Particulars: Klebsiella pneumoniae; fixed meropenem 4 μg/mL, CAMHB, 16-20 hours 37° C.; read-out: MIC of exemplary compounds in presence of fixed β-lactams, Fixed Mero, K.P. A-1797 KPC-2 VIM-4.
Excerpt: as §1, §2

In a further experiment the test system is P. aerug. Ps296 VIM-2. The experiment is described as follows: Broth microdilution MIC, P. aeruginosa Ps296. The conditions noted are these: Pseudomonas aeruginosa; fixed meropenem 4 μg/mL, CAMHB, 16-20 hours 37° C.; read-out: MIC of exemplary compounds in presence of fixed β-lactams, Fixed Mero, P. aerug. Ps296 VIM-2.
Excerpt: as §1, §2

In a further experiment the test system is S. aureus MSSA-7 PC-1. The experiment is described as follows: Broth microdilution MIC, S. aureus MSSA-7. The conditions noted are these: Staphylococcus aureus, fixed piperacillin 4 μg/mL, CAMHB, 16-20 hours 37° C., read-out: MIC of exemplary compounds in presence of fixed β-lactams, Fixed Pip, S. aureus MSSA-7 PC-1.
Excerpt: as §1, §2

Another experiment relates to K.P. 156319 KPC-3. The experiment is described as follows: Broth microdilution MIC, K. pneumoniae 156319. Particulars: Klebsiella pneumoniae; fixed meropenem 4 μg/mL, CAMHB, 16-20 hours 37° C.; read-out: MIC of exemplary compounds in presence of fixed β-lactams, Fixed Mero, K.P. 156319 KPC-3.

The results in this text go back to patent US10669290B2, “Beta-lactamase inhibitors” (priority 2012, dated 2020).

Structures are written as SMILES. A value given as a limit tells only on which side of the number the result lay.

By MIC is commonly meant the least concentration at which growth counts as inhibited. Consider `O=C(C[C@H]1CC[C@H](N2CCNCC2)CC1)N[C@H]1Cc2cccc(C(=O)O)c2OB1O` [Example 16, (R)-2-hydroxy-3-(2-(trans-4-(piperazin-1-yl)cyclohexyl)acetamido)-3,4-dihydro-2H-benzo[e][1,2]oxaborinine-8-carboxylic acid], for which the MIC was below 4 µg/mL in the experiment with E. cl 144200 p99 AmpC; below 4 µg/mL with E. coli ESBL4 CTX-M-15; above 32 µg/mL in the experiment with K.P. A-1797 KPC-2 VIM-4; 8 to 32 µg/mL in the experiment on P. aerug. Ps296 VIM-2; below 4 µg/mL in the experiment with S. aureus MSSA-7 PC-1; below 4 µg/mL in the experiment with K.P. 156319 KPC-3.

With `O=C(C[C@H]1CC[C@@H](N2CCNCC2)CC1)N[C@H]1Cc2cccc(C(=O)O)c2OB1O` [Example 17, (R)-2-hydroxy-3-(2-(cis-4-(piperazin-1-yl)cyclohexyl)acetamido)-3,4-dihydro-2H-benzo[e][1,2]oxaborinine-8-carboxylic acid], the MIC in the experiment with E. cl 144200 p99 AmpC was below 4 µg/mL; in the experiment on E. coli ESBL4 CTX-M-15, below 4 µg/mL; in the experiment on K.P. A-1797 KPC-2 VIM-4 it was above 32 µg/mL; in the experiment with P. aerug. Ps296 VIM-2, above 32 µg/mL; in the experiment with S. aureus MSSA-7 PC-1, below 4 µg/mL; in the experiment on K.P. 156319 KPC-3 it was below 4 µg/mL.

For `N[C@H]1CC[C@H](CCC(=O)N[C@H]2Cc3cccc(C(=O)O)c3OB2O)CC1` [Example 21, (R)-3-(3-(trans-4-aminocyclohexyl)propanamido)-2-hydroxy-3,4-dihydro-2H-benzo[e][1,2]oxaborinine-8-carboxylic acid], the MIC was below 4 µg/mL with E. cl 144200 p99 AmpC; below 4 µg/mL in the experiment on E. coli ESBL4 CTX-M-15; above 32 µg/mL in the experiment on K.P. A-1797 KPC-2 VIM-4; 8 to 32 µg/mL in the experiment on P. aerug. Ps296 VIM-2; below 4 µg/mL with S. aureus MSSA-7 PC-1; below 4 µg/mL with K.P. 156319 KPC-3.

Take `N=C(N)N[C@H]1CC[C@H](CCC(=O)N[C@H]2Cc3cccc(C(=O)O)c3OB2O)CC1` [Example 22, (R)-3-(3-(trans-4-guanidinocyclohexyl)propanamido)-2-hydroxy-3,4-dihydro-2H-benzo[e][1,2]oxaborinine-8-carboxylic acid]: the MIC is below 4 µg/mL in the experiment with E. cl 144200 p99 AmpC; below 4 µg/mL in the experiment with E. coli ESBL4 CTX-M-15; below 4 µg/mL in the experiment on K.P. A-1797 KPC-2 VIM-4; 8 to 32 µg/mL with P. aerug. Ps296 VIM-2; below 4 µg/mL in the experiment with S. aureus MSSA-7 PC-1; below 4 µg/mL in the experiment on K.P. 156319 KPC-3.

As to `CN(C)CCN(C)[C@H]1CC[C@H](CC(=O)N[C@H]2Cc3cccc(C(=O)O)c3OB2O)CC1` [Example 23, (R)-3-(2-(trans-4-((2-(dimethylamino)ethyl)(methyl)amino)cyclohexyl)acetamido)-2-hydroxy-3,4-dihydro-2H-benzo[e][1,2]oxaborinine-8-carboxylic acid], the MIC is below 4 µg/mL in the experiment on E. cl 144200 p99 AmpC; below 4 µg/mL in the experiment with E. coli ESBL4 CTX-M-15; above 32 µg/mL in the experiment on K.P. A-1797 KPC-2 VIM-4; above 32 µg/mL in the experiment on P. aerug. Ps296 VIM-2; below 4 µg/mL in the experiment on S. aureus MSSA-7 PC-1; below 4 µg/mL in the experiment with K.P. 156319 KPC-3.

For `N=C(N)NCCN[C@H]1CC[C@H](CC(=O)N[C@H]2Cc3cccc(C(=O)O)c3OB2O)CC1` [Example 25, (R)-3-(2-(trans-4-(2-guanidinoethylamino)cyclohexyl)acetamido)-2-hydroxy-3,4-dihydro-2H-benzo[e][1,2]oxaborinine-8-carboxylic acid], the MIC in the experiment with E. cl 144200 p99 AmpC, in the experiment with E. coli ESBL4 CTX-M-15, with K.P. A-1797 KPC-2 VIM-4, with P. aerug. Ps296 VIM-2, in the experiment with S. aureus MSSA-7 PC-1 and with K.P. 156319 KPC-3 was below 4 µg/mL in each case.

Consider `O=C(C[C@H]1CC[C@H](NCCO)CC1)N[C@H]1Cc2cccc(C(=O)O)c2OB1O` [Example 26, (R)-2-hydroxy-3-(2-(trans-4-(2-hydroxyethylamino)cyclohexyl)acetamido)-3,4-dihydro-2H-benzo[e][1,2]oxaborinine-8-carboxylic acid], for which the MIC in the experiment with E. cl 144200 p99 AmpC, with E. coli ESBL4 CTX-M-15, in the experiment with K.P. A-1797 KPC-2 VIM-4, in the experiment on P. aerug. Ps296 VIM-2, with S. aureus MSSA-7 PC-1 and with K.P. 156319 KPC-3 was below 4 µg/mL each time.

Turning to `O=C(C[C@H]1CC[C@H](NCc2cccnc2)CC1)N[C@H]1Cc2cccc(C(=O)O)c2OB1O` [Example 27, (R)-2-hydroxy-3-(2-(trans-4-(pyridin-3-ylmethylamino)cyclohexyl)acetamido)-3,4-dihydro-2H-benzo[e][1,2]oxaborinine-8-carboxylic acid], the MIC in the experiment with E. cl 144200 p99 AmpC was below 4 µg/mL; with E. coli ESBL4 CTX-M-15 it was below 4 µg/mL; in the experiment with K.P. A-1797 KPC-2 VIM-4, 8 to 32 µg/mL; in the experiment with P. aerug. Ps296 VIM-2, 8 to 32 µg/mL; with S. aureus MSSA-7 PC-1, below 4 µg/mL; in the experiment with K.P. 156319 KPC-3 it was below 4 µg/mL.

`O=C(O)CN[C@H]1CC[C@H](CC(=O)N[C@H]2Cc3cccc(C(=O)O)c3OB2O)CC1` [Example 28, (R)-3-(2-(trans-4-(carboxymethylamino)cyclohexyl)acetamido)-2-hydroxy-3,4-dihydro-2H-benzo[e][1,2]oxaborinine-8-carboxylic acid]: the MIC in the experiment with E. cl 144200 p99 AmpC is below 4 µg/mL; in the experiment on E. coli ESBL4 CTX-M-15, below 4 µg/mL; with K.P. A-1797 KPC-2 VIM-4, above 32 µg/mL; in the experiment with P. aerug. Ps296 VIM-2 it was 8 to 32 µg/mL; with S. aureus MSSA-7 PC-1, below 4 µg/mL; in the experiment on K.P. 156319 KPC-3, below 4 µg/mL.

In the case of `O=C(C[C@H]1CC[C@H](N2C=NCC2)CC1)N[C@H]1Cc2cccc(C(=O)O)c2OB1O` [Example 29, (R)-3-(2-(trans-4-(4,5-dihydro-1H-imidazol-1-yl)cyclohexyl)acetamido)-2-hydroxy-3,4-dihydro-2H-benzo[e][1,2]oxaborinine-8-carboxylic acid], the MIC in the experiment with E. cl 144200 p99 AmpC was below 4 µg/mL; in the experiment on E. coli ESBL4 CTX-M-15 it was below 4 µg/mL; in the experiment with K.P. A-1797 KPC-2 VIM-4, above 32 µg/mL; in the experiment with P. aerug. Ps296 VIM-2 it was 8 to 32 µg/mL; in the experiment with S. aureus MSSA-7 PC-1, below 4 µg/mL; in the experiment with K.P. 156319 KPC-3, below 4 µg/mL.

For `N=CN[C@H]1CC[C@H](CC(=O)N[C@H]2Cc3cccc(C(=O)O)c3OB2O)CC1` [Example 30, (R)-3-(2-(trans-4-formimidamidocyclohexyl)acetamido)-2-hydroxy-3,4-dihydro-2H-benzo[e][1,2]oxaborinine-8-carboxylic acid], the MIC is below 4 µg/mL with E. cl 144200 p99 AmpC; below 4 µg/mL in the experiment on E. coli ESBL4 CTX-M-15; 8 to 32 µg/mL in the experiment on K.P. A-1797 KPC-2 VIM-4; 8 to 32 µg/mL in the experiment with P. aerug. Ps296 VIM-2; below 4 µg/mL in the experiment on S. aureus MSSA-7 PC-1; below 4 µg/mL with K.P. 156319 KPC-3.

As for `O=C(CC1CCCCC1)N[C@H]1Cc2cccc(C(=O)O)c2OB1O` [Example 31, (R)-3-(2-cyclohexylacetamido)-2-hydroxy-3,4-dihydro-2H-benzo[e][1,2]oxaborinine-8-carboxylic acid], the MIC with E. cl 144200 p99 AmpC was below 4 µg/mL; in the experiment with E. coli ESBL4 CTX-M-15, below 4 µg/mL; in the experiment with K.P. A-1797 KPC-2 VIM-4, above 32 µg/mL; with P. aerug. Ps296 VIM-2, 8 to 32 µg/mL; in the experiment with S. aureus MSSA-7 PC-1, below 4 µg/mL; with K.P. 156319 KPC-3, 8 to 32 µg/mL.

For the compound `O=C(C[C@H]1CC[C@H](NCc2ccccn2)CC1)N[C@H]1Cc2cccc(C(=O)O)c2OB1O` [Example 32, (R)-2-hydroxy-3-(2-(trans-4-(pyridin-2-ylmethylamino)cyclohexyl)acetamido)-3,4-dihydro-2H-benzo[e][1,2]oxaborinine-8-carboxylic acid], the MIC with E. cl 144200 p99 AmpC was below 4 µg/mL; in the experiment with E. coli ESBL4 CTX-M-15 it was below 4 µg/mL; in the experiment on K.P. A-1797 KPC-2 VIM-4, above 32 µg/mL; in the experiment with P. aerug. Ps296 VIM-2, 8 to 32 µg/mL; in the experiment on S. aureus MSSA-7 PC-1, below 4 µg/mL; in the experiment on K.P. 156319 KPC-3, below 4 µg/mL.

In the case of `O=C(C[C@H]1CC[C@H](NCC2CCNCC2)CC1)N[C@H]1Cc2cccc(C(=O)O)c2OB1O` [Example 33, (R)-2-hydroxy-3-(2-(trans-4-(piperidin-4-ylmethylamino)cyclohexyl)acetamido)-3,4-dihydro-2H-benzo[e][1,2]oxaborinine-8-carboxylic acid], the MIC was below 4 µg/mL in the experiment on E. cl 144200 p99 AmpC; below 4 µg/mL with E. coli ESBL4 CTX-M-15; 8 to 32 µg/mL in the experiment on K.P. A-1797 KPC-2 VIM-4; 8 to 32 µg/mL in the experiment on P. aerug. Ps296 VIM-2; below 4 µg/mL in the experiment on S. aureus MSSA-7 PC-1; below 4 µg/mL in the experiment with K.P. 156319 KPC-3.
